Results: US10421770B2, “Pharmaceutical composition of carboplatin based co-crystals and use thereof” (SYN-NAT PRODUCTS ENTERPRISE LLC, priority 2015, dated 2019)
Where two headings read alike, the source gives them in different places.

Legend:
HL-7002 cells = experiment: cell viability (MTS) assay, fetal hepatocytes HL-7002; format: cell-based, human; details: HL-7002 immortalized fetal hepatic cells, 0.01 to 300 μM, OD490, read-out: IC50 to reduce HL-7002 cell number
Protocol: (§1) The index of cell growth repression ratio was obtained by comparing the OD490 data of treatment group to the negative control. The drug response rate IC50 was calculated with the SPSS 16.0 system.
(§2) Cell culture: Prostate cancer cell lines LNCaP and PC-3 were purchased from ATCC (Manassas, Va.). The fetal hepatocytes HL-7002 and human embryonic kidney cells […] were purchased from ATCC. The cells were cultured in RPMI+5% Fetal Bovine Serum (FBS).
(§3) The cells treated with the solvents were used as the negative control, and cisplatin and docetaxel were used as the positive controls. The cells were monitored daily, and the cell viability was evaluated with the Promega CellTiter 96 AQueous One Solution Cell Proliferation Assay (Promega, Madison, Wis., USA) according to the manufacture manuals. The cell viability was monitored at OD490 reading in a bio-spectrometer (Perkin Elmer, Walthan, Mass., USA).
(§4) Data analysis: The OD490 reading data were collected hourly from 1 h to 4 h after the addition of lysis buffer. The index of cell growth repression ratio was obtained by comparing the OD490 data of treatment to the negative control. The drug response rate IC50 was calculated with the SPSS 16.0.
The index of cell growth repression ratio was obtained by comparing the OD490 data of treatment group to the negative control. The drug response rate IC50 was calculated with the SPSS 16.0 system. […]

HEK293 cells = experiment: cell viability (MTS) assay, embryonic kidney cell line HEK293; format: cell-based, human; details: HEK293 immortalized fetal kidney cells, 0.01 to 300 μM, OD490, read-out: IC50 to reduce HEK293 cells
Protocol: HEK293 cells are an immortalized human fetal kidney cell line. […] The index of cell growth repression ratio was obtained by comparing the OD490 data of treatment group to the negative control. The drug response rate IC50 was calculated with the SPSS 16.0 system.
as §2, §3, §4, §1
(§5) Cell culture: Colorectal cancer cell lines HCT-116 and HT29 were purchased from ATCC (Manassas, Va.). The fetal hepatocytes HL-7002 and human embryonic kidney cells […] were purchased from ATCC. The cells were cultured in RPMI+5% Fetal Bovine Serum (FBS).

HCT-116 cells = experiment: cell viability (MTS) assay, HCT-116 colorectal cancer cells; format: cell-based; details: drugs 0.01 to 300 μM, OD490, read-out: IC50 to reduce HCT-116 cell number
Protocol: HCT-116 cells are a colorectal cancer cell line. […] The index of cell growth repression ratio was obtained by comparing the OD490 data of treatment group to the negative control. The drug response rate IC50 was calculated with the SPSS 16.0 system.
as §5, §3, §4

HT29 cells = experiment: cell viability (MTS) assay, HT29 colorectal cancer cells; format: cell-based; details: OD490, read-out: IC50 to reduce HT29 cell number
Protocol: HT29 cells are a colorectal cancer cell line. […] The index of cell growth repression ratio was obtained by comparing the OD490 data of treatment group to the negative control. The drug response rate IC50 was calculated with the SPSS 16.0 system.
as §5, §3, §4

PC-3 cells = experiment: cell viability (MTS) assay, PC-3 prostate cancer cells; format: cell-based; details: Homo sapiens, drugs 0.01 to 300 μM, OD490, read-out: IC50 to reduce PC-3 cell number
Protocol: The index of cell growth repression ratio was obtained by comparing the OD490 data of treatment group to the negative control. The drug response rate IC50 was calculated with the SPSS 16.0 system. […] The fetal hepatocytes HL-7002 and human embryonic kidney cells […] were purchased from ATCC. The cells were cultured in RPMI+5% Fetal Bovine Serum (FBS). […] The cells treated with the solvents were used as the negative control, and cisplatin and docetaxel were used as the positive controls. The cells were monitored daily, and the cell viability was evaluated with the Promega CellTiter 96 AQueous One Solution Cell Proliferation Assay (Promega, Madison, Wis., USA) according to the manufacture manuals. The cell viability was monitored at OD490 reading in a bio-spectrometer (Perkin Elmer, Walthan, Mass., USA). Data analysis: The OD490 reading data were collected hourly from 1 h to 4 h after the addition of lysis buffer. The index of cell growth repression ratio was obtained by comparing the OD490 data of treatment to the negative control. The drug response rate IC50 was calculated with the SPSS 16.0.

LNCaP cells = experiment: cell viability (MTS) assay, LNCaP prostate cancer cells; format: cell-based; details: Homo sapiens, drugs 0.01 to 300 μM, OD490, read-out: IC50 to reduce LNCaP cell number
Protocol: The index of cell growth repression ratio was obtained by comparing the OD490 data of treatment group to the negative control. The drug response rate IC50 was calculated with the SPSS 16.0 system. Cell culture: Prostate cancer cell lines LNCaP and PC-3 were purchased from ATCC (Manassas, Va.). The fetal hepatocytes HL-7002 and human embryonic kidney cells […] were purchased from ATCC. The cells were cultured in RPMI+5% Fetal Bovine Serum (FBS). […] The cells treated with the solvents were used as the negative control, and cisplatin and docetaxel were used as the positive controls. The cells were monitored daily, and the cell viability was evaluated with the Promega CellTiter 96 AQueous One Solution Cell Proliferation Assay (Promega, Madison, Wis., USA) according to the manufacture manuals. The cell viability was monitored at OD490 reading in a bio-spectrometer (Perkin Elmer, Walthan, Mass., USA). Data analysis: The OD490 reading data were collected hourly from 1 h to 4 h after the addition of lysis buffer. The index of cell growth repression ratio was obtained by comparing the OD490 data of treatment to the negative control. The drug response rate IC50 was calculated with the SPSS 16.0.

| IC50 (HCT-116 cells; Homo sapiens) | IC50 (HT29 cells; Homo sapiens, HT-29, drugs 0.01 to 300 μM) | SMILES | IC50 (HL-7002 cells; Homo sapiens, Hepatocyte) | IC50 (HEK293 cells; Homo sapiens) | IC50 (HL-7002 cells) | IC50 (HEK293 cells) | IC50 (HCT-116 cells) | IC50 (HT29 cells; drugs 0.01 to 300 μM) | IC50 (PC-3 cells) | IC50 (LNCaP cells) |
| --- | --- | --- | --- | --- | --- | --- | --- | --- | --- | --- |
| 4.21 µM | 7.56 µM | O=c1[nH]cc(F)c(=O)[nH]1 [5-FU, fluorouracil] | 4.42 µM | 3.74 µM |  |  |  |  |  |  |
|  |  | O=C1[O][Pt]2([NH][C@@H]3CCCC[C@H]3[NH]2)[O]C1=O [oxaliplatin] |  |  | 2.44 µM | 10.1 µM | 8.15 µM | 30 µM |  |  |
|  |  | CC(=O)O[C@@]12CO[C@@H]1C[C@H](O)[C@@]1(C)C(=O)[C@H](O)C3=C(C)[C@@H](OC(=O)[C@H](O)[C@@H](NC(=O)OC(C)(C)C)c4ccccc4)C[C@@](O)([C@@H](OC(=O)c4ccccc4)[C@H]21)C3(C)C [docetaxel] |  | 1.74 µM |  |  |  |  | 49.9 µM | 4.03 µM |
